Reference: ChEMBL document CHEMBL1201862, “PubChem BioAssay data set” (2004)
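How tested: cells in 96-well plates exposed to compound for 48 hours at five concentrations. The concentration for 50% growth inhibition is given as GI50.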 Active and inactive are the calls of the source. No stated cut-off is given here; in the data, active = GI50 up to about 1.1 µM and inactive = higher.

What was measured:
Test in all cases: DTP human tumour cell line panel, 48 h
[1] = system: 786-0
[2] = system: A498
[3] = system: A549
[4] = system: ACHN
[5] = system: BT-549
[6] = system: CAKI-1
[7] = system: CCRF-CEM
[8] = system: COLO 205
[9] = system: DU-145
[10] = system: EKVX
[11] = system: HCC 2998
[12] = system: HCT-116
[13] = system: HCT-15
[14] = system: HOP-62
[15] = system: HOP-92
[16] = system: HT-29
[17] = system: Hs-578T
[18] = system: IGROV-1
[19] = system: K562
[20] = system: KM12
[21] = system: LOX IMVI
[22] = system: MCF7
[23] = system: MDA-MB-231
[24] = system: MDA-MB-435
[25] = system: MDA-N
[26] = system: MOLT-4
[27] = system: Malme-3M
[28] = system: NCI-H226
[29] = system: NCI-H23
[30] = system: NCI-H460
[31] = system: NCI-H522
[32] = system: NCI/ADR-RES
[33] = system: OVCAR-3
[34] = system: OVCAR-4
[35] = system: OVCAR-5
[36] = system: OVCAR-8
[37] = system: PC-3
[38] = system: RPMI-8226
[39] = system: SF-268
[40] = system: SF-295
[41] = system: SF-539
[42] = system: SK-MEL-2
[43] = system: SK-MEL-5
[44] = system: SK-OV-3
[45] = system: SNB-19
[46] = system: SNB-75
[47] = system: SR
[48] = system: SW-620
[49] = system: T47D
[50] = system: TK-10
[51] = system: U-251
[52] = system: UACC-257
[53] = system: UACC-62
[54] = system: UO-31
[55] = system: HL-60
[56] = system: M14
[57] = system: RXF 393
[58] = system: SK-MEL-28
[59] = system: SN12C

With `CCOC(=O)/C=C/[C@@H](CC)O[Si](C(C)C)(C(C)C)C(C)C` as the molecule, how does the GI50 [1] read?
Its GI50 is > 100 µM (inactive).

And the GI50 [2]?
The GI50 was > 100 µM (inactive).

And the GI50 [3]?
Its GI50 is > 100 µM (inactive).

And the GI50 [4]?
Its GI50 is > 100 µM (inactive).

And the GI50 [5]?
Its GI50 is > 100 µM (inactive).

And the GI50 [6]?
The GI50 was > 100 µM (inactive).

And the GI50 [7]?
Its GI50 is 42.2 µM (inactive).

And the GI50 [8]?
Its GI50 is > 100 µM (inactive).

What about the GI50 [9] of the same molecule?
Its GI50 is > 100 µM (inactive).

And the GI50 [10]?
Its GI50 is > 100 µM (inactive).

And the GI50 [11]?
Its GI50 is > 100 µM (inactive).

And the GI50 [12]?
Its GI50 is > 100 µM (inactive).

What about the GI50 [13] of the same molecule?
Its GI50 is over 100 µM.

And the GI50 [14]?
Its GI50 is 67.6 µM (inactive).

And the GI50 [15]?
Its GI50 is > 100 µM (inactive).

What about the GI50 [16] of the same molecule?
Its GI50 is > 100 µM (inactive).

And the GI50 [17]?
The GI50 was > 100 µM (inactive).

What about the GI50 [18] of the same molecule?
The GI50 was > 100 µM (inactive).

And the GI50 [19]?
Its GI50 is > 100 µM (inactive).

And the GI50 [20]?
The GI50 was > 100 µM (inactive).

What about the GI50 [21] of the same molecule?
Its GI50 is > 100 µM (inactive).

What about the GI50 [22] of the same molecule?
The GI50 was 90.2 µM (inactive).

And the GI50 [23]?
The GI50 was > 100 µM (inactive).

What about the GI50 [24] of the same molecule?
Its GI50 is > 100 µM (inactive).

And the GI50 [25]?
The GI50 was > 100 µM (inactive).

And the GI50 [26]?
Its GI50 is > 100 µM (inactive).

And the GI50 [27]?
The GI50 was > 100 µM (inactive).

What about the GI50 [28] of the same molecule?
The GI50 was > 100 µM (inactive).

And the GI50 [29]?
Its GI50 is > 100 µM (inactive).

And the GI50 [30]?
Its GI50 is > 100 µM (inactive).

And the GI50 [31]?
Its GI50 is > 100 µM (inactive).

What about the GI50 [32] of the same molecule?
The GI50 was > 100 µM (inactive).

What about the GI50 [33] of the same molecule?
The GI50 was > 100 µM (inactive).

What about the GI50 [34] of the same molecule?
Its GI50 is > 100 µM (inactive).

What about the GI50 [35] of the same molecule?
The GI50 was > 100 µM (inactive).

And the GI50 [36]?
Its GI50 is > 100 µM (inactive).

And the GI50 [37]?
The GI50 was 61.7 µM (inactive).

And the GI50 [38]?
The GI50 was 50.6 µM (inactive).

And the GI50 [39]?
Its GI50 is > 100 µM (inactive).

And the GI50 [40]?
The GI50 was 48.4 µM (inactive).

What about the GI50 [41] of the same molecule?
Its GI50 is > 100 µM (inactive).

What about the GI50 [42] of the same molecule?
Its GI50 is > 100 µM (inactive).

What about the GI50 [43] of the same molecule?
Its GI50 is > 100 µM (inactive).

What about the GI50 [44] of the same molecule?
The GI50 was > 100 µM (inactive).

What about the GI50 [45] of the same molecule?
The GI50 was > 100 µM (inactive).

And the GI50 [46]?
The GI50 was > 100 µM (inactive).

What about the GI50 [47] of the same molecule?
The GI50 was 74.6 µM (inactive).

What about the GI50 [48] of the same molecule?
Its GI50 is > 100 µM (inactive).

What about the GI50 [49] of the same molecule?
The GI50 was > 100 µM (inactive).

And the GI50 [50]?
Its GI50 is > 100 µM (inactive).

And the GI50 [51]?
Its GI50 is > 100 µM (inactive).

What about the GI50 [52] of the same molecule?
Its GI50 is 67.3 µM (inactive).

What about the GI50 [53] of the same molecule?
Its GI50 is > 100 µM (inactive).

What about the GI50 [54] of the same molecule?
Its GI50 is > 100 µM (inactive).

For `COc1ccc(/C=C2\N=C(N3CCCC(CO)C3)NC2=O)cc1` (stereo not given), which GI50 [1] is on record?
Its GI50 is > 100 µM (inactive).

What about the GI50 [3] of the same molecule?
Its GI50 is > 100 µM (inactive).

And the GI50 [4]?
The GI50 was > 100 µM (inactive).

What about the GI50 [5] of the same molecule?
Its GI50 is > 100 µM (inactive).

What about the GI50 [6] of the same molecule?
The GI50 was > 100 µM (inactive).

And the GI50 [7]?
The GI50 was > 100 µM (inactive).

And the GI50 [8]?
Its GI50 is > 100 µM (inactive).

What about the GI50 [9] of the same molecule?
The GI50 was > 100 µM (inactive).

What about the GI50 [10] of the same molecule?
Its GI50 is > 100 µM (inactive).

What about the GI50 [11] of the same molecule?
Its GI50 is > 100 µM (inactive).

And the GI50 [12]?
Its GI50 is > 100 µM (inactive).

And the GI50 [13]?
The GI50 was over 100 µM.

And the GI50 [55]?
Its GI50 is > 100 µM (inactive).

And the GI50 [14]?
The GI50 was > 100 µM (inactive).

And the GI50 [15]?
Its GI50 is > 100 µM (inactive).

And the GI50 [16]?
Its GI50 is > 100 µM (inactive).

And the GI50 [17]?
The GI50 was > 100 µM (inactive).

What about the GI50 [18] of the same molecule?
The GI50 was > 100 µM (inactive).

And the GI50 [20]?
Its GI50 is > 100 µM (inactive).

What about the GI50 [21] of the same molecule?
Its GI50 is > 100 µM (inactive).

And the GI50 [56]?
The GI50 was > 100 µM (inactive).

And the GI50 [22]?
The GI50 was > 100 µM (inactive).

What about the GI50 [23] of the same molecule?
Its GI50 is > 100 µM (inactive).

What about the GI50 [24] of the same molecule?
The GI50 was > 100 µM (inactive).

And the GI50 [25]?
Its GI50 is > 100 µM (inactive).

And the GI50 [26]?
The GI50 was > 100 µM (inactive).

What about the GI50 [27] of the same molecule?
Its GI50 is > 100 µM (inactive).

What about the GI50 [28] of the same molecule?
The GI50 was > 100 µM (inactive).

What about the GI50 [29] of the same molecule?
The GI50 was > 100 µM (inactive).

What about the GI50 [31] of the same molecule?
The GI50 was > 100 µM (inactive).

What about the GI50 [32] of the same molecule?
Its GI50 is > 100 µM (inactive).

What about the GI50 [33] of the same molecule?
The GI50 was > 100 µM (inactive).

And the GI50 [34]?
The GI50 was > 100 µM (inactive).

What about the GI50 [35] of the same molecule?
The GI50 was > 100 µM (inactive).

And the GI50 [36]?
The GI50 was > 100 µM (inactive).

And the GI50 [37]?
The GI50 was > 100 µM (inactive).

What about the GI50 [38] of the same molecule?
The GI50 was > 100 µM (inactive).

What about the GI50 [57] of the same molecule?
Its GI50 is > 100 µM (inactive).

And the GI50 [39]?
The GI50 was > 100 µM (inactive).

And the GI50 [40]?
The GI50 was > 100 µM (inactive).

And the GI50 [41]?
The GI50 was > 100 µM (inactive).

And the GI50 [58]?
The GI50 was > 100 µM (inactive).

And the GI50 [42]?
Its GI50 is > 100 µM (inactive).

What about the GI50 [43] of the same molecule?
The GI50 was > 100 µM (inactive).

What about the GI50 [44] of the same molecule?
The GI50 was > 100 µM (inactive).

And the GI50 [59]?
Its GI50 is > 100 µM (inactive).

What about the GI50 [45] of the same molecule?
The GI50 was > 100 µM (inactive).

And the GI50 [46]?
The GI50 was > 100 µM (inactive).

What about the GI50 [47] of the same molecule?
Its GI50 is > 100 µM (inactive).

And the GI50 [48]?
The GI50 was > 100 µM (inactive).

What about the GI50 [49] of the same molecule?
Its GI50 is > 100 µM (inactive).

What about the GI50 [50] of the same molecule?
Its GI50 is > 100 µM (inactive).

And the GI50 [51]?
Its GI50 is > 100 µM (inactive).

What about the GI50 [52] of the same molecule?
The GI50 was > 100 µM (inactive).

And the GI50 [53]?
The GI50 was > 100 µM (inactive).

And the GI50 [54]?
Its GI50 is > 100 µM (inactive).
